Results reported in the supplement of paper PMC4314810.
± gives the standard deviation of the averaged measurements.

Each sequence was assayed on MCF7 (assay: HRG-induced Akt activation (dPAkt = log2 pAkt/Akt HRG-stimulated minus log2 pAkt/Akt basal) (log2 ratio difference); higher = stronger HRG-induced Akt(T308) phosphorylation). Conditions: miRNA mimic concentration 10 nM; time after transfection 72 h; heregulin 10 ng/ml; stimulation time 1 h.
Method in brief: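 Akt activation induced by heregulin was calculated as the difference between stimulated and unstimulated log ratios of phospho-Akt to total Akt, then averaged across replicates. The ratio was taken as log2(pAkt/Akt) from In-Cell Western readings of phospho-Akt(T308) and total Akt on an Odyssey, corrected for column-wise fixation decay. Before reading, MCF7 cells ([…], 96-well plates) transfected with 879 miRNA mimics at 10 nM final via Lipofectamine RNAiMax were, after 72 h, given 10 ng/ml heregulin-beta1 for 1 h or no stimulus, then fixed with 4% PFA. Two biological replicates were run.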

**Q.** AGGUUACCCGAGCAACUUUGCAU was tested. Which “HRG-induced Akt activation (log2)” value did it give?
**A.** 0.732 ± 0.16

**Q.** Which “HRG-induced Akt activation (log2)” value does the source give for AGGUUGACAUACGUUUCCC here?
**A.** 1.43 ± 0.13

**Q.** With AGGUUGGGAUCGGUUGCAAUGCU as the sequence, how does the “HRG-induced Akt activation (log2)” value read?
**A.** 1.59 ± 0.021

**Q.** How did the “HRG-induced Akt activation (log2)” value turn out when AGGUUGUCCGUGGUGAGUUCGCA was run?
**A.** 1.02 ± 0.18

**Q.** With AGUAUGUUCUUCCAGGACAGAAC as the sequence, how does the “HRG-induced Akt activation (log2)” value read?
**A.** 1.83 ± 0.087

**Q.** How did the “HRG-induced Akt activation (log2)” value turn out when AGUAUUCUGUACCAGGGAAGGU was run?
**A.** 1.96 ± 0.043

**Q.** AGUCAUUGGAGGGUUUGAGCAG was tested. Which “HRG-induced Akt activation (log2)” value did it give?
**A.** 1.86 ± 0.057

**Q.** With AGUGAAUGAUGGGUUCUGACC as the sequence, how does the “HRG-induced Akt activation (log2)” value read?
**A.** 1.879 ± 0.002

**Q.** For AGUGCCUGAGGGAGUAAGAGCCC, which “HRG-induced Akt activation (log2)” value is on record?
**A.** 1.72 ± 0.04

**Q.** Which “HRG-induced Akt activation (log2)” value does the source give for AGUGGGGAACCCUUCCAUGAGG here?
**A.** 1.94 ± 0.25

**Q.** Which “HRG-induced Akt activation (log2)” value does the source give for AGUGUGGCUUUCUUAGAGC here?
**A.** 0.799 ± 1.1

**Q.** For AGUUAAUGAAUCCUGGAAAGU, which “HRG-induced Akt activation (log2)” value is on record?
**A.** 1.46 ± 0.25

**Q.** For AGUUAGGAUUAGGUCGUGGAA, which “HRG-induced Akt activation (log2)” value is on record?
**A.** 1 ± 0.39

**Q.** How did the “HRG-induced Akt activation (log2)” value turn out when AGUUCUUCAGUGGCAAGCUUUA was run?
**A.** 0.966 ± 0.66

**Q.** AGUUUUGCAGGUUUGCAUCCAGC was tested. Which “HRG-induced Akt activation (log2)” value did it give?
**A.** 1.36 ± 0.22

**Q.** How did the “HRG-induced Akt activation (log2)” value turn out when AGUUUUGCAGGUUUGCAUUUCA was run?
**A.** 1.13 ± 0.15

**Q.** Which “HRG-induced Akt activation (log2)” value does the source give for AGUUUUGCAUAGUUGCACUACA here?
**A.** 1.37 ± 0.032

**Q.** Which “HRG-induced Akt activation (log2)” value does the source give for AUAAAGCUAGAUAACCGAAAGU here?
**A.** 2.04 ± 0.33

**Q.** Which “HRG-induced Akt activation (log2)” value does the source give for AUAAGACGAACAAAAGGUUUGU here?
**A.** 1.75 ± 0.072

**Q.** How did the “HRG-induced Akt activation (log2)” value turn out when AUAAGACGAGCAAAAAGCUUGU was run?
**A.** 1.73 ± 0.05

**Q.** With AUAAUACAUGGUUAACCUCUUU as the sequence, how does the “HRG-induced Akt activation (log2)” value read?
**A.** 1.2 ± 0.064

**Q.** Which “HRG-induced Akt activation (log2)” value does the source give for AUAUAAUACAACCUGCUAAGUG here?
**A.** 0.999 ± 0.15

**Q.** For AUAUAUGAUGACUUAGCUUUU, which “HRG-induced Akt activation (log2)” value is on record?
**A.** 2.03 ± 0.027

**Q.** How did the “HRG-induced Akt activation (log2)” value turn out when AUAUUACCAUUAGCUCAUCUUU was run?
**A.** 1.42 ± 0.089

**Q.** For AUCAACAGACAUUAAUUGGGCGC, which “HRG-induced Akt activation (log2)” value is on record?
**A.** 2.3 ± 0.38

**Q.** With AUCACACAAAGGCAACUUUUGU as the sequence, how does the “HRG-induced Akt activation (log2)” value read?
**A.** 1.78 ± 0.33

**Q.** How did the “HRG-induced Akt activation (log2)” value turn out when AUCACAUUGCCAGGGAUUACC was run?
**A.** 1.54 ± 0.03

**Q.** How did the “HRG-induced Akt activation (log2)” value turn out when AUCACAUUGCCAGGGAUUUCC was run?
**A.** 1.12 ± 0.24

**Q.** With AUCAUAGAGGAAAAUCCACGU as the sequence, how does the “HRG-induced Akt activation (log2)” value read?
**A.** 2.13 ± 0.46

**Q.** How did the “HRG-induced Akt activation (log2)” value turn out when AUCAUAGAGGAAAAUCCAUGUU was run?
**A.** 1.64 ± 1

**Q.** AUCAUGAUGGGCUCCUCGGUGU was tested. Which “HRG-induced Akt activation (log2)” value did it give?
**A.** 1.41 ± 0.22

**Q.** How did the “HRG-induced Akt activation (log2)” value turn out when AUCCCACCUCUGCCACCA was run?
**A.** 1.2 ± 0.059

**Q.** How did the “HRG-induced Akt activation (log2)” value turn out when AUCCCUUGCAGGGGCUGUUGGGU was run?
**A.** 1.02 ± 0.69

**Q.** For AUCCGCGCUCUGACUCUCUGCC, which “HRG-induced Akt activation (log2)” value is on record?
**A.** 1.53 ± 0.14

**Q.** Which “HRG-induced Akt activation (log2)” value does the source give for AUCCUUGCUAUCUGGGUGCUA here?
**A.** 1.94 ± 0.15

**Q.** AUCGCUGCGGUUGCGAGCGCUGU was tested. Which “HRG-induced Akt activation (log2)” value did it give?
**A.** 1.63 ± 0.063

**Q.** How did the “HRG-induced Akt activation (log2)” value turn out when AUCGGGAAUGUCGUGUCCGCCC was run?
**A.** 1.6 ± 0.039

**Q.** With AUCGUGCAUCCCUUUAGAGUGU as the sequence, how does the “HRG-induced Akt activation (log2)” value read?
**A.** 1.54 ± 0.1

**Q.** AUCGUGCAUCCUUUUAGAGUGU was tested. Which “HRG-induced Akt activation (log2)” value did it give?
**A.** 1.47 ± 0.099

**Q.** With AUCUGGAGGUAAGAAGCACUUU as the sequence, how does the “HRG-induced Akt activation (log2)” value read?
**A.** 1.83 ± 0.33

**Q.** For AUGACCUAUGAAUUGACAGAC, which “HRG-induced Akt activation (log2)” value is on record?
**A.** 1.43 ± 0.063

**Q.** Which “HRG-induced Akt activation (log2)” value does the source give for AUGAUCCAGGAACCUGCCUCU here?
**A.** 2.49 ± 0.056

**Q.** With AUGCACCUGGGCAAGGAUUCUG as the sequence, how does the “HRG-induced Akt activation (log2)” value read?
**A.** 1.77 ± 0.18

**Q.** For AUGCUGACAUAUUUACUAGAGG, which “HRG-induced Akt activation (log2)” value is on record?
**A.** 0.706 ± 0.25

**Q.** With AUGGAGAUAGAUAUAGAAAU as the sequence, how does the “HRG-induced Akt activation (log2)” value read?
**A.** 1.51 ± 0.11

**Q.** For AUGGAUAAGGCUUUGGCUU, which “HRG-induced Akt activation (log2)” value is on record?
**A.** 1.72 ± 0.027

**Q.** How did the “HRG-induced Akt activation (log2)” value turn out when AUGGGUGAAUUUGUAGAAGGAU was run?
**A.** 1.81 ± 0.12

**Q.** How did the “HRG-induced Akt activation (log2)” value turn out when AUGGUACCCUGGCAUACUGAGU was run?
**A.** 1.62 ± 0.59

**Q.** For AUGGUUCCGUCAAGCACCAUGG, which “HRG-induced Akt activation (log2)” value is on record?
**A.** 1.87 ± 0.22

**Q.** Which “HRG-induced Akt activation (log2)” value does the source give for AUGUAGGGCUAAAAGCCAUGGG here?
**A.** 1.01 ± 0.24

**Q.** Which “HRG-induced Akt activation (log2)” value does the source give for AUGUAUAAAUGUAUACACAC here?
**A.** 1.42 ± 0.5

**Q.** With AUGUAUGUGUGCAUGUGCAUG as the sequence, how does the “HRG-induced Akt activation (log2)” value read?
**A.** 1.62 ± 0.4

**Q.** How did the “HRG-induced Akt activation (log2)” value turn out when AUUCCUAGAAAUUGUUCAUA was run?
**A.** 1.18 ± 0.4

**Q.** Which “HRG-induced Akt activation (log2)” value does the source give for AUUCUAAUUUCUCCACGUCUUU here?
**A.** 1.44 ± 0.29

**Q.** Which “HRG-induced Akt activation (log2)” value does the source give for AUUCUGCAUUUUUAGCAAGUUC here?
**A.** 1.8 ± 0.078

**Q.** How did the “HRG-induced Akt activation (log2)” value turn out when AUUGACACUUCUGUGAGUAGA was run?
**A.** 1.55 ± 0.046

**Q.** How did the “HRG-induced Akt activation (log2)” value turn out when AUUGAUCAUCGACACUUCGAACGCAAU was run?
**A.** 1.383 ± 0.0097

**Q.** With AUUUGUGCUUGGCUCUGUCAC as the sequence, how does the “HRG-induced Akt activation (log2)” value read?
**A.** 0.917 ± 0.31
